Consider 17 molecules from PubChem BioAssay AID248 (DTP/NCI, 2004).

In the experiment the test system is L1210 leukemia ip in BDF1 mice, survival T/C. Put plainly: NCI In Vivo Anticancer Drug Screen. Data for tumor model L1210 Leukemia (intraperitoneal) in B6D2F1 (BDF1) mice. Particulars: endpoint: mean survival time, higher = longer survival. In a few lines:
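Each compound was tested against a transplantable tumor grown in mice. The endpoint was survival, with treated animals benchmarked against vehicle controls as a simple ratio.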

Setting [1] is: dose: 100.0 mg/kg/injection, schedule: Q04DX002 (ip), vehicle: saline with Tween-80.
Setting [2] is: dose: 200.0 mg/kg/injection, schedule: Q04DX002 (ip), vehicle: saline with Tween-80.
Setting [3] is: dose: 100.0 mg/kg/injection, schedule: Q01DX009 (ip), vehicle: Klucel (hydroxypropylcellulose) (HPC).
Where [4] appears, read: dose: 200.0 mg/kg/injection, schedule: Q01DX009 (ip), vehicle: Klucel (hydroxypropylcellulose) (HPC).
[5] abbreviates: dose: 50.0 mg/kg/injection, schedule: Q01DX001 (ip), vehicle: saline.
The mark [6] stands for this setting: dose: 100.0 mg/kg/injection, schedule: Q01DX001 (ip), vehicle: saline.
Setting [7] is: dose: 200.0 mg/kg/injection, schedule: Q01DX001 (ip), vehicle: saline.
[8] abbreviates: dose: 400.0 mg/kg/injection, schedule: Q01DX001 (ip), vehicle: saline.

Several values for one entry are separate records, joined by “and”; a condition that tells them apart may be missing. Equal values may be shown once. Toxic doses and inconclusive results are not listed.

Take `O=[N+]([O-])c1ccc(N/N=C\c2ccc(OCCOCCCl)cc2)c([N+](=O)[O-])c1`: the T/C is, setting by setting: (dose: 25.0 mg/kg/injection, schedule: Q01DX001 (ip), vehicle: saline with Tween-80) 94 % of control; (dose: 50.0 mg/kg/injection, schedule: Q01DX001 (ip), vehicle: saline with Tween-80) 86 % of control; (dose: 100.0 mg/kg/injection, schedule: Q01DX001 (ip), vehicle: saline with Tween-80) 94 % of control and 92 % of control.
In the case of `Cc1ccc(S(=O)(=O)N/N=C(\CSc2ccc(N(C)C)cc2)c2ccccc2)cc1`, the T/C was 105 % of control (dose: 50.0 mg/kg/injection, schedule: Q04DX002 (ip), vehicle: saline with Tween-80); 86 % of control under setting [1]; 97 % of control under setting [2]; 90 % of control (dose: 400.0 mg/kg/injection, schedule: Q04DX002 (ip), vehicle: saline with Tween-80).
`Cc1no[n+]([O-])c1NC(=O)OCc1ccccc1`: the T/C by setting is: (dose: 100.0 mg/kg/injection, schedule: Q04DX002 (ip), vehicle: Klucel (hydroxypropylcellulose) (HPC)) 98 % of control; (dose: 200.0 mg/kg/injection, schedule: Q04DX002 (ip), vehicle: Klucel (hydroxypropylcellulose) (HPC)) 102 % of control; (dose: 400.0 mg/kg/injection, schedule: Q04DX002 (ip), vehicle: Klucel (hydroxypropylcellulose) (HPC)) 98 % of control.
For the molecule `COC1CCC(NC(=O)N(CCCl)N=O)CC1` (centres undefined), the T/C (dose: 3.5 mg/kg/injection, schedule: Q01DX001 (ip), vehicle: saline with Tween-80) was 106 % of control; the T/C (dose: 5.0 mg/kg/injection, schedule: Q01DX001 (ip), vehicle: saline with Tween-80) was 110 % of control; the T/C (dose: 8.0 mg/kg/injection, schedule: Q01DX001 (ip), vehicle: saline with Tween-80) was 124 % of control; the T/C (dose: 16.0 mg/kg/injection, schedule: Q01DX001 (ip), vehicle: saline with Tween-80) was 155 % of control and 266 % of control; the T/C (dose: 18.0 mg/kg/injection, schedule: Q01DX001 (ip), vehicle: saline with Tween-80) is 221 % of control; the T/C (dose: 24.0 mg/kg/injection, schedule: Q01DX001 (ip), vehicle: saline with Tween-80) is 592 % of control. The T/C is, setting by setting: (dose: 26.0 mg/kg/injection, schedule: Q01DX001 (ip), vehicle: saline with Tween-80) 302 % of control; (dose: 35.0 mg/kg/injection, schedule: Q01DX001 (ip), vehicle: saline with Tween-80) 404 % of control; (dose: 40.0 mg/kg/injection, schedule: Q01DX001 (ip), vehicle: saline with Tween-80) 340 % of control; (dose: 53.0 mg/kg/injection, schedule: Q01DX001 (ip), vehicle: saline with Tween-80) 193 % of control; (dose: 60.0 mg/kg/injection, schedule: Q01DX001 (ip), vehicle: saline with Tween-80) 294 % of control.
Regarding `C1CSCCS1`, the T/C was 101 % of control under setting [3]; 117 % of control under setting [4]; 100 % of control (dose: 400.0 mg/kg/injection, schedule: Q01DX009 (ip), vehicle: Klucel (hydroxypropylcellulose) (HPC)).
In the case of `CC(C)(C)C1CCC(=O)C(Cl)C1` (centres undefined), the T/C runs as follows: under setting [3], 94 % of control; (dose: 100.0 mg/kg/injection, schedule: Q04DX003 (ip), vehicle: alcohol) 94 % of control; under setting [4], 95 % of control; (dose: 200.0 mg/kg/injection, schedule: Q04DX003 (ip), vehicle: alcohol) 92 % of control; (dose: 400.0 mg/kg/injection, schedule: Q04DX003 (ip), vehicle: alcohol) 87 % of control.
Turning to `C=CCc1cccc(C2N(Cc3ccccc3OC)CCCN2Cc2ccccc2OC)c1O`, the T/C is 103 % of control under setting [5], 100 % of control under setting [6], 97 % of control under setting [7] and 97 % of control under setting [8].
For `CN(C)CCCN1c2ccccc2C(C)(C)c2ccccc21`, the T/C under setting [5] is 96 % of control; the T/C (dose: 50.0 mg/kg/injection, schedule: Q01DX009 (ip), vehicle: saline with Tween-80) was 104 % of control; the T/C (dose: 50.0 mg/kg/injection, schedule: Q01DX009 (ip), vehicle: saline) is 106 % of control; the T/C under setting [6] was 96 % of control; the T/C (dose: 100.0 mg/kg/injection, schedule: Q01DX009 (ip), vehicle: saline with Tween-80) is 116 % of control; the T/C (dose: 100.0 mg/kg/injection, schedule: Q01DX009 (ip), vehicle: saline) was 118 % of control. The T/C reads like this: (dose: 100.0 mg/kg/injection, schedule: Q04DX003 (ip), vehicle: saline with Tween-80) 107 % of control; under setting [7], 104 % of control; (dose: 200.0 mg/kg/injection, schedule: Q04DX003 (ip), vehicle: saline with Tween-80) 102 % of control.
For the molecule `C[CH2][Hg][Cl]`, the T/C is 97 % of control (dose: 12.5 mg/kg/injection, schedule: Q04DX002 (ip), vehicle: Klucel (hydroxypropylcellulose) (HPC)); 94 % of control (dose: 25.0 mg/kg/injection, schedule: Q04DX002 (ip), vehicle: Klucel (hydroxypropylcellulose) (HPC)); 97 % of control under setting [6].
Consider `Nc1ncnc2c1ncn2C1OC(CO)C(O)C1O.[Cl][Pt][Cl]` (centres undefined), for which the T/C runs as follows: (dose: 100.0 mg/kg/injection, schedule: Q01DX009 (ip), vehicle: water) 97 % of control; (dose: 100.0 mg/kg/injection, schedule: Q04DX003 (ip), vehicle: water) 94 % of control; (dose: 200.0 mg/kg/injection, schedule: Q01DX009 (ip), vehicle: water) 103 % of control; (dose: 200.0 mg/kg/injection, schedule: Q04DX003 (ip), vehicle: water) 97 % of control; (dose: 400.0 mg/kg/injection, schedule: Q01DX009 (ip), vehicle: water) 100 % of control; (dose: 400.0 mg/kg/injection, schedule: Q04DX003 (ip), vehicle: water) 94 % of control.
As to `CCc1ccc(/C(C#N)=C/c2cccc3ccccc23)cc1`, the T/C reads like this: (dose: 100.0 mg/kg/injection, schedule: Q04DX002 (ip), vehicle: alcohol) 97 % of control; (dose: 200.0 mg/kg/injection, schedule: Q04DX002 (ip), vehicle: alcohol) 105 % of control; (dose: 400.0 mg/kg/injection, schedule: Q04DX002 (ip), vehicle: alcohol) 91 % of control.
On to `CC1=C/C(=N/NC(N)=O)CC(C)C1` (centres undefined), for which the T/C reads like this: (dose: 100.0 mg/kg/injection, schedule: Q04DX003 (ip), vehicle: saline) 100 % of control; (dose: 200.0 mg/kg/injection, schedule: Q04DX003 (ip), vehicle: saline) 98 % of control; (dose: 400.0 mg/kg/injection, schedule: Q04DX003 (ip), vehicle: saline) 97 % of control.
For the molecule `C=C(CCC(=O)OC)C1=C(C)CC2OC(=O)C(=C)C2C1` (centres undefined), the T/C (dose: 50.0 mg/kg/injection, schedule: Q04DX002 (ip), vehicle: saline) is 120 % of control; the T/C (dose: 100.0 mg/kg/injection, schedule: Q04DX002 (ip), vehicle: saline) was 113 % of control; the T/C (dose: 200.0 mg/kg/injection, schedule: Q04DX002 (ip), vehicle: saline) was 100 % of control.
Consider `C=NC1CCCCC1`, for which the T/C is 105 % of control (dose: 100.0 mg/kg/injection, schedule: Q04DX002 (ip), vehicle: gum acacia); 105 % of control (dose: 200.0 mg/kg/injection, schedule: Q04DX002 (ip), vehicle: gum acacia); 92 % of control (dose: 400.0 mg/kg/injection, schedule: Q04DX002 (ip), vehicle: gum acacia).
Consider `O=NN(Cc1ccccc1)C(c1ccccc1)S(=O)(=O)O` (centres undefined), for which the T/C was 87 % of control (dose: 75.0 mg/kg/injection, schedule: Q01DX009 (ip), vehicle: saline); 112 % of control under setting [6]; 87 % of control (dose: 150.0 mg/kg/injection, schedule: Q01DX009 (ip), vehicle: saline); 100 % of control under setting [7]; 97 % of control (dose: 300.0 mg/kg/injection, schedule: Q01DX009 (ip), vehicle: saline); 93 % of control under setting [8].
Regarding `O=C1C2CCCC3CCCC(C(=O)N1NC1CCCCC1)C32` (centres undefined), the T/C under setting [1] was 93 % of control and the T/C under setting [2] was 86 % of control.
For `CCCCCCOc1ccc(C(=O)C(=O)c2ccccc2)cc1`, the T/C was 109 % of control (dose: 100.0 mg/kg/injection, schedule: Q01DX001 (ip), vehicle: carboxymethylcellulose (CMC)); 88 % of control (dose: 200.0 mg/kg/injection, schedule: Q01DX001 (ip), vehicle: carboxymethylcellulose (CMC)); 97 % of control (dose: 400.0 mg/kg/injection, schedule: Q01DX001 (ip), vehicle: carboxymethylcellulose (CMC)).
